Test results: patent publication US20250235418A1, “Butyrate Analogues and Methods of Use for HIF Stabilization and Treatment of Bowel Disease” (THE REGENTS OF THE UNIVERSITY OF COLORADO, A BODY CORPORATE, priority 2022, published 2025)

Key:
[1] = test system: HIF-1α / PHDs in murine colon; test: tributyrin oral gavage with or without MCPA in antibiotic SCFA-depleted mice; format: in vivo
Method: We next confirmed that butyrate functions as a PHD inhibitor in vivo through antibiotic-mediated depletion of the gut microbiota and SCFAs in mice. […] We administered tributyrin (200 μL), a prodrug of butyrate composed of a glycerol backbone with three butyrate moieties, to SCFA-depleted mice via oral gavage every day for three days with glycerol as a control. Additionally, some mice given tributyrin were subjected with a rectal gavage of 60 mM MCPA to inhibit butyrate metabolism 4 h prior to sacrifice. […] 60 mM MCPA was chosen as a well-tolerated dose that inhibited β-oxidation in mice and rats. […] HIF-la protein was also diminished in epithelial scrapings (FIG. 8B) and whole colon tissue (FIG. 8C) with antibiotic treatment, which was also rescued with tributyrin supplementation with or without MCPA. […] The stabilization of HIF-1α in whole colon tissue also is in agreement with our findings in HMEC-1 and A549 cells that PHD inhibition by butyrate expands to beyond just IECs alone.

[2] = oral gavage, 1 h after dosing, mice; cited from earlier work
[3] = tributyrin with or without MCPA

## CCCC(=O)OCC(COC(=O)CCC)OC(=O)CCC [tributyrin]
[1]; epithelial scrapings and whole colon tissue, tributyrin with or without MCPA
  HIF-1α protein after antibiotic depletion: rescued
[1]; [3]
  colon tissue 2-OG levels after antibiotic depletion: recovered
  colon tissue butyrate levels after antibiotic depletion: rescued
[1]; whole colon tissue and epithelial scrapings, tributyrin 200 μL oral gavage 3 d, with or without MCPA
  HIF-1α target gene Bnip3l mRNA after antibiotic depletion: normalized
[2]
  plasma butyrate concentration: > 1 mM
